Reference: the supplement of paper PMC10307832

What was measured:
Experiment in all cases: relative viability (nuclei count vs DMSO), 5 days (fraction); higher = more cells survive
Obatoclax + Trametinib = compound: COC1=CC(c2cc3ccccc3[nH]2)=N/C1=C\c1[nH]c(C)cc1C [Obatoclax] + CC(=O)Nc1cccc(-n2c(=O)n(C3CC3)c(=O)c3c(Nc4ccc(I)cc4F)n(C)c(=O)c(C)c32)c1 [Trametinib] (partner 0.02 µM)
Procedure, shortened: (§1)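 Lung cancer cell lines in 1536-well plates got either a single drug or a fixed anchor-drug dose together with five library-drug doses (not always all listed) in √10 steps, by pin tool, on the day after seeding. Nuclei were counted after 5 days, and relative viability is the treated-to-vehicle ratio of nuclei counts. Values are medians of duplicate plates.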

Obatoclax + Olaparib = compound: COC1=CC(c2cc3ccccc3[nH]2)=N/C1=C\c1[nH]c(C)cc1C [Obatoclax] + O=C(c1cc(Cc2n[nH]c(=O)c3ccccc23)ccc1F)N1CCN(C(=O)C2CC2)CC1 [Olaparib] (partner 8 µM)
Procedure, shortened: as §1

[1] = compound: CC1=CC(=NN1)NC2=CC(=NC(=N2)/C=C/C3=CC=CC=C3)N4CCN(CC4)C + O=C(CCCCCCC(=O)Nc1ccccc1)NO [Vorinostat] (partner 1 µM)
Procedure, shortened: as §1

Obatoclax + Dasatinib = compound: COC1=CC(c2cc3ccccc3[nH]2)=N/C1=C\c1[nH]c(C)cc1C [Obatoclax] + Cc1nc(Nc2ncc(C(=O)Nc3c(C)cccc3Cl)s2)cc(N2CCN(CCO)CC2)n1 [Dasatinib] (partner 0.075 µM)
Procedure, shortened: as §1

Cell Line	relative viability (Obatoclax + Trametinib; first compound 0.01 µM)	relative viability (Obatoclax + Trametinib; first compound 0.03162 µM)	relative viability (Obatoclax + Trametinib; first compound 0.1 µM)	relative viability (Obatoclax + Trametinib; first compound 0.3162 µM)	relative viability (Obatoclax + Trametinib; first compound 1 µM)	relative viability (Obatoclax + Olaparib; first compound 0.01 µM)	relative viability (Obatoclax + Olaparib; first compound 0.03162 µM)	relative viability (Obatoclax + Olaparib; first compound 0.1 µM)	relative viability (Obatoclax + Olaparib; first compound 0.3162 µM)	relative viability (Obatoclax + Olaparib; first compound 1 µM)	relative viability ([1]; first compound 0.08 µM)	relative viability ([1]; first compound 0.253 µM)	relative viability ([1]; first compound 0.8 µM)	relative viability ([1]; first compound 2.53 µM)	relative viability ([1]; first compound 8 µM)	relative viability (Obatoclax + Dasatinib; first compound 0.01 µM)	relative viability (Obatoclax + Dasatinib; first compound 0.03162 µM)	relative viability (Obatoclax + Dasatinib; first compound 0.1 µM)	relative viability (Obatoclax + Dasatinib; first compound 0.3162 µM)	relative viability (Obatoclax + Dasatinib; first compound 1 µM)
PC-3 [JPC-3]	0.643	0.71	0.621	0.667	0.47	1.09	1.25	1.02	1	0.514	0.766	0.876	0.814	0.543	0.333	0.963	1.02	1.01	1.01	0.943
HCC-44	1.09	1.02	0.989	1.1	0.994	0.965	0.988	0.966	0.969	0.94	1.08	1.13	1.05	0.904	0.36	–	–	–	–	–
NCI-H2405	0.6	0.746	–	0.741	0.861	0.911	0.981	–	0.935	0.734	1.05	1.1	1.02	0.406	0.142	0.218	0.197	–	0.205	0.22
LXF-289	0.642	0.663	0.671	0.707	0.671	1.05	1.1	0.972	1.09	1	0.742	0.759	0.603	0.252	0.113	0.23	0.23	0.0916	0.221	0.154
LOU-NH91	0.766	0.784	0.717	0.723	0.592	0.921	0.919	0.834	0.857	0.398	0.954	0.935	0.941	0.594	0.41	0.557	0.511	0.379	0.486	0.51
A549	–	–	–	–	–	0.326	0.367	0.0867	0.361	0.342	–	–	–	–	–	–	–	–	–	–
H3255	0.561	0.629	–	0.631	0.615	0.537	0.608	0.541	0.557	0.546	0.746	0.834	0.872	0.831	0.525	0.301	0.323	0.422	0.348	0.302
NCI-H1395	0.914	0.999	0.931	0.94	0.737	0.454	0.418	0.444	0.529	0.332	0.702	0.669	0.675	0.375	0.236	0.417	0.416	0.399	0.412	0.432
LC-2-ad	0.954	0.859	0.885	0.905	0.969	0.693	0.676	0.732	0.723	0.648	0.709	0.751	0.467	0.186	0.15	0.696	0.504	0.507	0.394	0.463
NCI-H838	0.548	0.559	0.346	0.493	0.248	0.747	0.79	0.792	0.577	0.255	0.726	0.729	0.394	0.146	0.117	0.298	0.25	–	0.277	0.226
Calu-6	–	–	–	–	–	0.538	0.565	0.611	0.534	0.239	–	–	–	–	–	–	–	–	–	–
SW 900	1.06	0.762	0.931	0.62	0.547	0.893	0.803	0.924	0.703	0.606	0.388	0.623	0.535	0.211	0.0757	0.637	0.627	0.543	0.206	0.153
ABC-1	–	–	–	–	–	1.08	0.95	0.776	0.799	0.566	1.01	1.19	1.31	0.392	0.225	0.498	0.55	0.369	0.551	0.375
NCI-H1703	–	–	–	–	–	0.18	0.403	0.393	0.524	0.246	–	–	–	–	–	–	–	–	–	–
NCI-H1563	–	–	–	–	–	–	–	–	–	–	–	–	–	–	–	0.457	0.437	0.453	0.457	0.469
NCI-H1623	–	–	–	–	–	–	–	–	–	–	–	–	–	–	–	0.548	0.502	0.499	0.572	0.52
NCI-H1792	0.365	0.302	0.417	0.509	0.411	0.423	0.334	0.299	0.369	0.405	–	–	–	–	–	0.867	0.8	–	0.72	0.962
IA-LM	–	–	–	–	–	0.832	0.881	0.775	0.782	0.114	1.02	1.12	0.874	0.887	0.332	–	–	–	–	–
EBC-1	–	–	–	–	–	0.632	0.765	0.642	0.583	0.269	–	–	–	–	–	–	–	–	–	–
NCI-H1648	0.52	0.406	0.559	0.51	0.457	1.07	0.793	0.91	0.624	0.576	0.437	0.488	0.666	0.346	0.203	–	–	–	–	–
NCI-H1299	–	–	–	–	–	0.946	0.92	0.976	0.969	0.331	–	–	–	–	–	–	–	–	–	–
